The values that follow are results of earlier work, collected in patent publication US20210220357A1, “1,3-THIAZOL-2-YL SUBSTITUTED BENZAMIDES FOR THE TREATMENT OF DISEASES ASSOCIATED WITH NERVE FIBER SENSITIZATION” (Bayer Aktiengesellschaft, priority 2018, published 2021).

In the data set the test system is treated subjects. Particulars: Clinical Phase II trials, taste sensation via the tongue.

As for `COc1cc(C(C)C)c(Oc2cnc(N)nc2N)cc1S(N)(=O)=O` [AF-219, 5-(2,4-diamino-pyrimidin-5-yloxy)-4-isopropyl-2-methoxy-benzenesulfonamide], the taste disturbances entry is reported as “taste disturbances”.
